Measurements: patent US20230117470A1, “SUBSTITUTED PYRAZOLE COMPOUNDS AS TOLL RECEPTOR INHIBITORS” (BRISTOL-MYERS SQUIBB COMPANY, priority 2019, published 2023)

Tests used:
Assay type in all cases: cell-based
[1] = target: T1, human TLR7 (Homo sapiens, UniProt Q9NYK1); assay: TLR7 inhibition reporter assay (HEK-Blue cells, SEAP reporter, gardiquimod stimulation); details: HEK-Blue cells overexpressing human TLR7, SEAP reporter, gardiquimod 7.5 μM
T1 construct: host or cells: HEK-Blue cells
T1 sequence (Q9NYK1 27-1049): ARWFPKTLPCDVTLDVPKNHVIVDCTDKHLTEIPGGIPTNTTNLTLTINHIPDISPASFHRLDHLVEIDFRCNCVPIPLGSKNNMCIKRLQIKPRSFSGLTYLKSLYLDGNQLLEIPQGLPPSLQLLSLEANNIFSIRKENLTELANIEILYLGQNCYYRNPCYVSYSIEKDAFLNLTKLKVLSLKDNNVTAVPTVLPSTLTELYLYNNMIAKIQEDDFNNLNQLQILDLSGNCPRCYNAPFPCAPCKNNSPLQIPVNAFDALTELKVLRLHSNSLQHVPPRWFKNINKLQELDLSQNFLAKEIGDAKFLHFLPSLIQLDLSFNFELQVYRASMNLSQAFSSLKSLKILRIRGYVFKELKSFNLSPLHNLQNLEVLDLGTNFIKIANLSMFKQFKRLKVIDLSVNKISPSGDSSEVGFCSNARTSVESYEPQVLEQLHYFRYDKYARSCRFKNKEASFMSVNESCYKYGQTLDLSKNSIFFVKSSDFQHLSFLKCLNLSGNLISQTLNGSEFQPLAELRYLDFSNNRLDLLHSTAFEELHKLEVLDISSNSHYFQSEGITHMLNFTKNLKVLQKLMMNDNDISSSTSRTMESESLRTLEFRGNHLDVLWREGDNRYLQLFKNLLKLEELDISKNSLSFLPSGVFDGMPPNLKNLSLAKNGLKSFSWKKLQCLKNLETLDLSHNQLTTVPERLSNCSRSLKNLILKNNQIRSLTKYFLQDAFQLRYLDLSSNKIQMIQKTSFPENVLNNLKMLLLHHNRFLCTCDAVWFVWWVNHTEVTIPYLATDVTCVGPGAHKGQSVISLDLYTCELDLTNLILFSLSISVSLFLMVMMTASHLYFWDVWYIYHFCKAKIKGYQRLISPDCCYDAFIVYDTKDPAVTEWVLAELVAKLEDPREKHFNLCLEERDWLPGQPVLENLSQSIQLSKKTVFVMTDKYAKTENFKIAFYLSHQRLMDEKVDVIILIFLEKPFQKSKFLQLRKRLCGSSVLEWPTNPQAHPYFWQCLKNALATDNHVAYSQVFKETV
Outline: (§1)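 HEK-Blue cells overexpressing human TLR7, TLR8 or TLR9, with an NF-κB/AP-1-driven SEAP reporter, pre-treated 30 min at room temperature with compound (0.05 nM-50 μM final). Stimulated with 7.5 μM gardiquimod (TLR7), 15.9 μM R848 (TLR8) or 5 nM ODN2006 (TLR9), then 22 h at 37° C. SEAP read with HEK-Blue Detection; % inhibition set against agonist+DMSO and known-inhibitor wells.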

[2] = target: T2, human TLR8 (Homo sapiens, UniProt Q9NR97); assay: TLR8 inhibition reporter assay (HEK-Blue cells, SEAP reporter, R848 stimulation); details: HEK-Blue cells overexpressing human TLR8, SEAP reporter, R848 15.9 μM
T2 construct: host or cells: HEK-Blue cells
T2 sequence (Q9NR97 27-1041): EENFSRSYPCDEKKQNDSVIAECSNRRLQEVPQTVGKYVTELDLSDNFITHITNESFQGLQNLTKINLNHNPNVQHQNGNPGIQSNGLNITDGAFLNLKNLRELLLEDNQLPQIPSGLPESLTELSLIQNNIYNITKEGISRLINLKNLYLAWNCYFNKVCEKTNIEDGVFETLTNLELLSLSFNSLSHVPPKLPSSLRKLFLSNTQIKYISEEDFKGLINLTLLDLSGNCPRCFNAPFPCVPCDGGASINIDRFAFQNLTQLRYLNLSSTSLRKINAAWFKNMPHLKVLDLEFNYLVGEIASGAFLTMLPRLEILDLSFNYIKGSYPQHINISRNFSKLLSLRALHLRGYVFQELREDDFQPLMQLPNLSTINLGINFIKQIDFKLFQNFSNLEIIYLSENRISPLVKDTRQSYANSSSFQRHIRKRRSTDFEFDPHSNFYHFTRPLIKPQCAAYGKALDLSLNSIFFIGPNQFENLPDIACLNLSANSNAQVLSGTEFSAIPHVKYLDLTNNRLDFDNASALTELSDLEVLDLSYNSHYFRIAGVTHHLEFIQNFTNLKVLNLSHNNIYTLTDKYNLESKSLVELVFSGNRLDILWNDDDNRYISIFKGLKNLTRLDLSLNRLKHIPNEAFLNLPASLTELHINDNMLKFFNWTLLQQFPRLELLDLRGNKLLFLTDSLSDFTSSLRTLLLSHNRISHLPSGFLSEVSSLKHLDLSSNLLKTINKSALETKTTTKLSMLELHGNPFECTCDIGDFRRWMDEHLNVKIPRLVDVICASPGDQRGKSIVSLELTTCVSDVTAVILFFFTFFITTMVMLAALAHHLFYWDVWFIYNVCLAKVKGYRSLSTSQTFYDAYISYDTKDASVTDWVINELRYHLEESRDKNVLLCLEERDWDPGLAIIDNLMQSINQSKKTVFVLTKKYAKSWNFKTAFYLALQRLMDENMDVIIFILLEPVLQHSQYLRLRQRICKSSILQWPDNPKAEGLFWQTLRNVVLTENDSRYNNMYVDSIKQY
Outline: as §1

[3] = target: T3, human TLR9 (Homo sapiens, UniProt Q9NR96); assay: TLR9 inhibition reporter assay (HEK-Blue cells, SEAP reporter, ODN2006 stimulation); details: HEK-Blue cells overexpressing human TLR9, SEAP reporter, ODN2006 5 nM
T3 construct: host or cells: HEK-Blue cells
T3 sequence (Q9NR96 26-1032): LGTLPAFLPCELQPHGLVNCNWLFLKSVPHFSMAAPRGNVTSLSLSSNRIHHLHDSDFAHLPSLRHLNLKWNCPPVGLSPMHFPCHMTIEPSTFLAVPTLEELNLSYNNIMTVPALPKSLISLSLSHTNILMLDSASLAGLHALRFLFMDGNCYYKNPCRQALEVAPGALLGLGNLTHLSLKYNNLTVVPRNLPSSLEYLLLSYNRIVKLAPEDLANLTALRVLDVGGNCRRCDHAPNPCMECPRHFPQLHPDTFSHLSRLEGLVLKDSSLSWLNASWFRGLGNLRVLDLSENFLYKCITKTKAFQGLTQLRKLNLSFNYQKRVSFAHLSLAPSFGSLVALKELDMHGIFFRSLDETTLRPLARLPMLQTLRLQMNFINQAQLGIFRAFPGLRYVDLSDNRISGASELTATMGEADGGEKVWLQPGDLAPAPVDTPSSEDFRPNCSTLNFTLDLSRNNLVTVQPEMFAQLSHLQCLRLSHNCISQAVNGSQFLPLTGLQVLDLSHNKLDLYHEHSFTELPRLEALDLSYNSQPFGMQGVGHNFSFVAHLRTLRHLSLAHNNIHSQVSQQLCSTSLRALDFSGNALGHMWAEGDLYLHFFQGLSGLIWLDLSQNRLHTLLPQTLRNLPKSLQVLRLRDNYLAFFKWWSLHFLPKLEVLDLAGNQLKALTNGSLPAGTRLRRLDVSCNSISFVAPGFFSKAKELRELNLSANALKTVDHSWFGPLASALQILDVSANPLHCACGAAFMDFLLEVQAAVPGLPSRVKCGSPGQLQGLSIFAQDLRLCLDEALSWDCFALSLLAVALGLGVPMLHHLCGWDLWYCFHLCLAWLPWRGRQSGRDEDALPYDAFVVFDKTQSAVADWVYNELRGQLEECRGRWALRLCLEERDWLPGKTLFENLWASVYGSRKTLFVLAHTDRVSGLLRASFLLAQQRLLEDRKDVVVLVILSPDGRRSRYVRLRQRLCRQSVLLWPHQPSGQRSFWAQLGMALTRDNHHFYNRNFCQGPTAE
Outline: as §1

Row | SMILES | IC50 [1] [nM] | IC50 [2] [nM] | IC50 [3] [nM]
1 | Cc1cc(-c2[nH]nc(C3CCC(N(C)CC(=O)N(C)C)CC3)c2C(C)C)cn2ncnc12 (stereo not drawn) [Example 298, 2-((4-(4-isopropyl-5-(8-methyl-[1,2,4]triazolo[1,5-a]pyridin-6-yl)-1H-pyrazol-3-yl)cyclohexyl)(methyl)amino)-N,N-dimethylacetamide] | 1.56 | 0.43 | 7410
2 | Cc1cc(-c2[nH]nc(C(=O)NC3CCN(CCC(C)C)CC3)c2C(C)C)cn2ncnc12 [Example 76] | 0.9 | 2.62 | 1450
3 | Cc1cc(-c2[nH]nc(C(=O)N[C@@H]3CCCNC3)c2C(C)C)cn2ncnc12 [Example 52] | 2.9 | 4.22 | 18000
4 | Cc1cc(-c2[nH]nc(C3CCC(NC4CCN(C(C)C)CC4)CC3)c2C(C)C)cn2ncnc12 (single isomer, unassigned) [Example 289] | 5.19 | 0.97 | 19700
5 | Cc1cc(-c2[nH]nc(C(=O)NC3CCN(CC(C)(C)C)CC3)c2C(C)C)cn2ncnc12 [Example 74] | 0.71 | 3.44 | 1910
6 | CNC(=O)CN1CCc2cc(-c3n[nH]c(-c4cc(C)c5ncnn5c4)c3C(C)C)ccc2C1 [Example 273] | 13.7 | 26.5 | 5550
7 | Cc1cc(-c2[nH]nc(-c3nc4c(s3)CN(C)CC4)c2C(C)C)cn2ncnc12 [Example 256] | 34.3 | 31.3 | 16900
8 | Cc1cc(-c2[nH]nc(C3CCC(NC4CCN(C(C)C)CC4)CC3)c2C(C)C)cn2ncnc12 (single isomer, unassigned) [Example 288] | 15.2 | 0.52 | 14200
9 | COc1cc(-c2[nH]nc(-c3ccc(C4CCN(CC(N)=O)CC4)cn3)c2C(C)C)cn2ncnc12 [Example 393] | 77.6 | 140 | > 50000
10 | COc1cc(-c2[nH]nc(-c3ccc(C4CCN(C)CC4)cn3)c2C(C)C)cn2ncnc12 [Example 348] | 19.1 | 22.4 | > 50000
11 | COc1cc(-c2[nH]nc(-c3ccc(C4CN(C5CCOCC5)C4)cc3)c2C(C)C)cn2ncnc12 [Example 333] | 34.9 | 2.19 | 37400
12 | COc1cc(-c2[nH]nc(-c3cnc(C4CCN(CCCF)CC4)cn3)c2C(C)C)cn2ncnc12 [Example 399] | 126 | 132 | > 50000
13 | Cc1cc(-c2[nH]nc(C(N)=O)c2C(C)C)cn2ncnc12 [Example 29] | 18.4 | 1.91 | 216
14 | Cc1cc(-c2[nH]nc(C(=O)C(=O)NC3CCN(C(C)C)CC3)c2C(C)C)cn2ncnc12 [Example 183, 2-(4-isopropyl-5-(8-methyl-[1,2,4]triazolo[1,5-a]pyridin-6-yl)-1H-pyrazol-3-yl)-N-(1-isopropylpiperidin-4-yl)-2-oxoacetamide] | 8.89 | 9.41 | 6790
15 | Cc1cc(-c2[nH]nc(C(=O)N[C@H]3CC[C@@H](N(CCC(C)(C)C)CCC(C)(C)C)CC3)c2C(C)C)cn2ncnc12 [Example 90] | 0.8 | 1.13 | 11100
16 | Cc1cc(-c2[nH]nc(-c3cc4n(n3)CCNC4)c2C(C)C)cn2ncnc12 [Example 217] | 2.41 | 5.3 | 5870
17 | Cc1cc(-c2[nH]nc(-c3ncc4c(n3)CNC4)c2C(C)C)cn2ncnc12 [Example 216] | 0.72 | 1.02 | 6520
18 | Cc1cc(-c2[nH]nc(C3CCN(C(=O)CN(C)C)CC3)c2C(C)C)cn2ncnc12 [compound 209] | 0.32 | 0.14 | 4170
19 | Cc1cc(-c2[nH]nc(C(=O)NC[C@H]3CC[C@H](N)CC3)c2C(C)C)cn2ncnc12 [Example 47] | 2.92 | 0.56 | 6840
20 | CNC(=O)CN1CCC(NC(=O)c2n[nH]c(-c3cc(C)c4ncnn4c3)c2C(C)C)CC1 [compound 177] | 3.23 | 5.63 | 9790
21 | CCN1CCC(c2cnc(-c3n[nH]c(-c4cc(C)c5ncnn5c4)c3C(C)C)nc2)CC1 [Example 369] | 18 | 33 | 46900
22 | CCc1c(C(=O)NC2CCN(C(C)C)CC2)n[nH]c1-c1cc(C)c2ncnn2c1 [compound 182] | 1.74 | 0.76 | 13500
23 | Cc1cc(-c2[nH]nc(-c3cccc(N(C)C)c3)c2C(C)C)cn2ncnc12 [Example 245] | 2.6 | 0.65 | 22900
24 | Cc1cc(-c2[nH]nc(-c3ncc(C4CCN(C)CC4)cn3)c2C(C)C)cn2ncnc12 [Example 368] | 10.5 | 28.1 | 5460
25 | Cc1cc(-c2[nH]nc(-c3ncc(C4CCN(CC(C)(C)O)CC4)cn3)c2C(C)C)cn2ncnc12 [Example 390] | 93.6 | 481 | > 50000
